Measured values taken from patent US8859574B2 (IRM LLC, priority 2008, dated 2014).

Biological target: T1, IGF-1R Ba/F3 (Homo sapiens, UniProt P08069)
T1 construct: fused on or other part: TEL- (or BCR-) IGF-1R in Ba/F3: the kinase part holds the site
Assay: Ba/F3 Cell Viability Inhibition Assay (IGF-1R Ba/F3)
Type: cell-based, murine
Conditions: Tel-TK transformed Ba/F3 cells, 48 hours, Britelite luminescence
Method in brief: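 IL-3-independent murine Ba/F3 cells transformed with a TEL/BCR-fused IGF-1R kinase were seeded at 3750 cells/well and exposed to serially diluted compound for 48 h at 37 °C. Viability was read by Britelite luminescence. IC50 is the concentration giving 50% of DMSO-control viability, from a logistic fit.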

T1 sequence (P08069 999-1274 limits assumed): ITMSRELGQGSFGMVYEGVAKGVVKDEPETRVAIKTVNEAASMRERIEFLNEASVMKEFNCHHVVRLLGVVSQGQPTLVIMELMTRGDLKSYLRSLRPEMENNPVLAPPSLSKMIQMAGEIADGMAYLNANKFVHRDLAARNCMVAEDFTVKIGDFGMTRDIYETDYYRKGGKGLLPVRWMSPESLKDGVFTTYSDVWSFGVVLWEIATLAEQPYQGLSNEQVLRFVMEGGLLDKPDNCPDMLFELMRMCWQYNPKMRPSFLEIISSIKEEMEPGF

Which IC50 does the source give for `Cc1cc(Nc2nc(Nc3cc(C)c(C4CCN(CC(O)C(F)(F)F)CC4)cc3C)ncc2Cl)n[nH]1` (centres unmarked) [Compound 29, 3-(4-(4-(5-chloro-4-(5-methyl-1H-pyrazol-3-ylamino)pyrimidin-2-ylamino)-2,5-dimethylphenyl)piperidin-1-yl)-1,1,1-trifluoropropan-2-ol] here?
Its IC50 is 23 nM.

For `Cc1cc(Nc2nc(Nc3cc(C)c(C4CCN(CCS(C)(=O)=O)CC4)cc3C)ncc2Cl)n[nH]1` [Compound 56, 5-chloro-N2-(2,5-dimethyl-4-(1-(2-(methylsulfonyl)ethyl)piperidin-4-yl)phenyl)-N4-(5-methyl-1H-pyrazol-3-yl)pyrimidine-2,4-diamine], which IC50 is on record?
The IC50 was 6 nM.

How did the IC50 turn out when `CNC(=O)CN1CCC(c2cc(C)c(Nc3ncc(Cl)c(Nc4cc(C)[nH]n4)n3)cc2C)CC1` [Compound 38, 2-(4-(4-(5-chloro-4-(5-methyl-1H-pyrazol-3-ylamino)pyrimidin-2-ylamino)-2,5-dimethylphenyl)piperidin-1-yl)-N-methylacetamide] was run?
The IC50 was 10 nM.

Which IC50 does the source give for `Cc1ccc(N2CCC(c3cc(F)c(Nc4ncc(Cl)c(Nc5cc(C)[nH]n5)n4)cc3C)CC2)nn1` [Compound 277, 5-Chloro-N2-(2-fluoro-5-methyl-4-(1-(6-methylpyridazin-3-yl)piperidin-4-yl)phenyl)-N4-(5-methyl-1H-pyrazol-3-yl)pyrimidine-2,4-diamine] here?
Its IC50 is 97 nM.

With `CNC(=O)CN1CCC[C@@H](c2cc(C)c(Nc3ncc(Cl)c(Nc4cc(C)[nH]n4)n3)cc2C)C1` (single isomer, unassigned) [Compound 208] as the molecule, how does the IC50 read?
The IC50 was 10 nM.

Which IC50 does the source give for `Cc1cc(Nc2nc(Nc3cc(C)c(C4CCN(C(=O)c5ccc[nH]5)CC4)cc3F)ncc2Cl)n[nH]1` [Compound 124, (4-(4-(5-chloro-4-(5-methyl-1H-pyrazol-3-ylamino)pyrimidin-2-ylamino)-5-fluoro-2-methylphenyl)piperidin-1-yl)(1H-pyrrol-2-yl)methanone] here?
Its IC50 is 145 nM.

For `Cc1cc(Nc2nc(Nc3cc(C)c(C4CCCN(C(=O)C5(N)CC5)C4)cc3C)ncc2Cl)n[nH]1` (centres unmarked) [Compound 187, (1-aminocyclopropyl)(3-(4-(5-chloro-4-(5-methyl-1H-pyrazol-3-ylamino)pyrimidin-2-ylamino)-2,5-dimethylphenyl)piperidin-1-yl)methanone], which IC50 is on record?
Its IC50 is 95 nM.

Which IC50 does the source give for `Cc1cc(Nc2nc(Nc3cc(C)c(C4CCN(CCC(N)=O)CC4)cc3C)ncc2Cl)n[nH]1` [Compound 236, 3-(4-(4-(5-Chloro-4-(5-methyl-1H-pyrazol-3-ylamino)pyrimidin-2-ylamino)-2,5-dimethylphenyl)piperidin-1-yl)propanamide] here?
The IC50 was 59 nM.

With `Cc1cc(Nc2nc(Nc3cc(C)c(C4CCN(C5CS(=O)(=O)C5)CC4)cc3F)ncc2Cl)n[nH]1` [Compound 148, 5-chloro-N^2-(2-fluoro-5-methyl-4-(1-(1,1-dioxido-3-thietanyl)piperidin-4-yl)phenyl)-N^4-(5-methyl-1H-pyrazol-3-yl)pyrimidine-2,4-diamine] as the molecule, how does the IC50 read?
Its IC50 is 18 nM.

With `CCc1cc(Nc2ncc(Cl)c(Nc3cc(C)[nH]n3)n2)c(C)cc1C1CCN(CC(N)=O)CC1` [Compound 261, 2-(4-(4-(5-chloro-4-(5-methyl-1H-pyrazol-3-ylamino)pyrimidin-2-ylamino)-2-ethyl-5-methylphenyl)piperidin-1-yl)acetamide] as the molecule, how does the IC50 read?
The IC50 was 27 nM.

With `Cc1cc(Nc2nc(Nc3cc(C)c(C4CCN(Cc5ccncc5)CC4)cc3F)ncc2Cl)n[nH]1` [Compound 288, 5-chloro-N2-(2-fluoro-5-methyl-4-(1-(pyridin-4-ylmethyl)piperidin-4-yl)phenyl)-N4-(5-methyl-1H-pyrazol-3-yl)pyrimidine-2,4-diamine] as the molecule, how does the IC50 read?
Its IC50 is 93 nM.

`Cc1cc(Nc2nc(Nc3cc(C)c(C4CCN(C(=O)c5nc(C)oc5C(F)(F)F)CC4)cc3F)ncc2Cl)n[nH]1` [Compound 141, (4-(4-(5-chloro-4-(5-methyl-1H-pyrazol-3-ylamino)pyrimidin-2-ylamino)-5-fluoro-2-methylphenyl)piperidin-1-yl)(2-methyl-5-(trifluoromethyl)oxazol-4-yl)methanone] was tested. Which IC50 did it give?
Its IC50 is 69 nM.

How did the IC50 turn out when `Cc1cc(Nc2nc(Nc3cc(C)c(C4CCN(C(=O)[C@H]5CCCN5C(C)C)CC4)cc3F)ncc2Cl)n[nH]1` [Compound 135, (R)-(4-(4-(5-chloro-4-(5-methyl-1H-pyrazol-3-ylamino)pyrimidin-2-ylamino)-5-fluoro-2-methylphenyl)piperidin-1-yl)(1-isopropylpyrrolidin-2-yl)methanone] was run?
Its IC50 is 48 nM.

`Cc1cc(Nc2nc(Nc3cc(C)c(C4CCNCC4)cc3C)ncc2C)n[nH]1` [Compound 178, N2-(2,5-dimethyl-4-(piperidin-4-yl)phenyl)-5-methyl-N4-(5-methyl-1H-pyrazol-3-yl)pyrimidine-2,4-diamine] was tested. Which IC50 did it give?
The IC50 was 3230 nM.

How did the IC50 turn out when `Cc1cc(Nc2nc(Nc3cc(C)c(C4CCN(C5CNC5)CC4)cc3F)ncc2Cl)n[nH]1` [Compound 296, N2-(4-(1-(azetidin-3-yl)piperidin-4-yl)-2-fluoro-5-methylphenyl)-5-chloro-N4-(5-methyl-1H-pyrazol-3-yl)pyrimidine-2,4-diamine] was run?
Its IC50 is 101 nM.

For `Cc1cc(Nc2nc(Nc3cc(C)c(C4CCN(C(=O)CCN5CCOCC5)CC4)cc3C)ncc2Cl)n[nH]1` [Compound 225, 1-(4-(4-(5-Chloro-4-(5-methyl-1H-pyrazol-3-ylamino)pyrimidin-2-ylamino)-2,5-dimethylphenyl)piperidin-1-yl)-3-morpholinopropan-1-one], which IC50 is on record?
Its IC50 is 17 nM.

`Cc1cc(Nc2nc(Nc3cc(C)c(C4CCN(CC5CC5(F)F)CC4)cc3C)ncc2Cl)n[nH]1` (centres unmarked) [Compound 249, 5-chloro-N2-(4-(1-((2,2-difluorocyclopropyl)methyl)piperidin-4-yl)-2,5-dimethylphenyl)-N4-(5-methyl-1H-pyrazol-3-yl)pyrimidine-2,4-diamine] was tested. Which IC50 did it give?
The IC50 was 32 nM.

Which IC50 does the source give for `Cc1cc(Nc2nc(Nc3cc(C)c(C4CCN(C(=O)C(C)N)CC4)cc3F)ncc2Cl)n[nH]1` (centres unmarked) [Compound 86, 2-amino-1-(4-(4-(5-chloro-4-(5-methyl-1H-pyrazol-3-ylamino)pyrimidin-2-ylamino)-5-fluoro-2-methylphenyl)piperidin-1-yl)propan-1-one] here?
The IC50 was 141 nM.

Which IC50 does the source give for `Cc1cc(Nc2nc(Nc3cc(C)c(C4CCN([C@H](C)C(N)=O)CC4)cc3C)ncc2Cl)n[nH]1` [Compound 167, (R)-2-(4-(4-(5-chloro-4-(5-methyl-1H-pyrazol-3-ylamino)pyrimidin-2-ylamino)-2,5-dimethylphenyl)piperidin-1-yl)propanamide] here?
Its IC50 is 6 nM.

Which IC50 does the source give for `Cc1cc(Nc2nc(Nc3cc(C)c(C4CCN(Cc5c(C)noc5C)CC4)cc3F)ncc2Cl)n[nH]1` [Compound 19, 5-Chloro-N2-(4-(1-((3,5-dimethylisoxazol-4-yl)methyl)piperidin-4-yl)-2-fluoro-5-methylphenyl)-N4-(5-methyl-1H-pyrazol-3-yl)pyrimidine-2,4-diamine] here?
Its IC50 is 56 nM.

With `Cc1cc(Nc2nc(Nc3cc(C)c(C4CCN(C=O)CC4)cc3F)ncc2Cl)n[nH]1` [Compound 206, 4-(4-(5-chloro-4-(5-methyl-1H-pyrazol-3-ylamino)pyrimidin-2-ylamino)-5-fluoro-2-methylphenyl)piperidine-1-carbaldehyde] as the molecule, how does the IC50 read?
Its IC50 is 30 nM.

For `Cc1cc(Nc2nc(Nc3cc(C)c(C4CCN(CCS(=O)(=O)N5CCC5)CC4)cc3F)ncc2Cl)n[nH]1` [Compound 61, N2-(4-(1-(2-(azetidin-1-ylsulfonyl)ethyl)piperidin-4-yl)-2-fluoro-5-methylphenyl)-5-chloro-N4-(5-methyl-1H-pyrazol-3-yl)pyrimidine-2,4-diamine], which IC50 is on record?
Its IC50 is 56 nM.

Which IC50 does the source give for `Cc1cc(Nc2nc(Nc3cc(C)c(C4CCN(C5CC5)CC4)cc3C)ncc2Cl)n[nH]1` [Compound 250, 5-chloro-N2-(4-(1-cyclopropylpiperidin-4-yl)-2,5-dimethylphenyl)-N4-(5-methyl-1H-pyrazol-3-yl)pyrimidine-2,4-diamine] here?
Its IC50 is 25 nM.

For `Cc1cc(Nc2nc(Nc3cc(C)c(C4CCN([C@H]5CC[C@H](O)CC5)CC4)cc3F)ncc2Cl)n[nH]1` [Compound 310, Trans-4-(4-(4-(5-chloro-4-(5-methyl-1H-pyrazol-3-ylamino)pyrimidin-2-ylamino)-5-fluoro-2-methylphenyl)piperidin-1-yl)cyclohexanol], which IC50 is on record?
The IC50 was 27 nM.

For `Cc1cc(Nc2nc(Nc3cc(C)c(C4CCN(Cc5cnccn5)CC4)cc3C)ncc2Cl)n[nH]1` [Compound 318, 5-chloro-N2-(2,5-dimethyl-4-(1-(pyrazin-2-ylmethyl)piperidin-4-yl)phenyl)-N4-(5-methyl-1H-pyrazol-3-yl)pyrimidine-2,4-diamine], which IC50 is on record?
The IC50 was 10 nM.

Which IC50 does the source give for `Cc1cc(Nc2nc(Nc3cc(C)c(C4CCN([C@H]5CCN(S(C)(=O)=O)C5)CC4)cc3F)ncc2Cl)n[nH]1` [Compound 313, (S)-5-chloro-N2-(2-fluoro-5-methyl-4-(1-(1-(methylsulfonyl)pyrrolidin-3-yl)piperidin-4-yl)phenyl)-N4-(5-methyl-1H-pyrazol-3-yl)pyrimidine-2,4-diamine] here?
Its IC50 is 30 nM.

How did the IC50 turn out when `Cc1cc(Nc2nc(Nc3cc(C)c(C4CCCN(C(=O)CN(C)C)C4)cc3C)ncc2Cl)n[nH]1` (centres unmarked) [Compound 180, 1-(3-(4-(5-chloro-4-(5-methyl-1H-pyrazol-3-ylamino)pyrimidin-2-ylamino)-2,5-dimethylphenyl)piperidin-1-yl)-2-(dimethylamino)ethanone] was run?
Its IC50 is 25 nM.

With `Cc1cc(Nc2nc(Nc3cc(C)c(C4CCN(C(=O)CN5CCCC5)CC4)cc3F)ncc2Cl)n[nH]1` [Compound 99, 1-(4-(4-(5-chloro-4-(5-methyl-1H-pyrazol-3-ylamino)pyrimidin-2-ylamino)-5-fluoro-2-methylphenyl)piperidin-1-yl)-2-(pyrrolidin-1-yl)ethanone] as the molecule, how does the IC50 read?
Its IC50 is 38 nM.

Which IC50 does the source give for `COCCN1CCC(c2cc(C)c(Nc3ncc(Cl)c(Nc4cc(C)[nH]n4)n3)cc2C)CC1` [Compound 212, 5-chloro-N2-(4-(1-(2-methoxyethyl)piperidin-4-yl)-2,5-dimethylphenyl)-N4-(5-methyl-1H-pyrazol-3-yl)pyrimidine-2,4-diamine] here?
Its IC50 is 13 nM.
